Measurements from the CheMixHub ionic liquid set.
± gives the uncertainty stated by the source.

Experiment: xn = mol fraction of the nth substance listed

FC(F)(F)c1ccccc1 + CCCC[N+]1(C)CCCC1.FC(F)(F)C(F)(F)[P-](F)(F)(F)(C(F)(F)C(F)(F)F)C(F)(F)C(F)(F)F
101 kPa
Details | electrical conductivity [S/m] | viscosity [mPa·s]
298.1 K, x2 = 0 | – | 0.53 ± 0.03
298.1 K, x2 = 0.059 | 0.368 ± 0.007 | –
298.1 K, x2 = 0.099 | 0.536 ± 0.011 | –
298.1 K, x2 = 0.144 | 0.663 ± 0.013 | –
298.1 K, x2 = 0.198 | – | 3.67 ± 0.15
298.1 K, x2 = 0.203 | 0.762 ± 0.015 | –
298.1 K, x2 = 0.27 | – | 5.93 ± 0.31
298.1 K, x2 = 0.274 | 0.696 ± 0.014 | –
298.1 K, x2 = 0.371 | 0.619 ± 0.012 | –
298.1 K, x2 = 0.495 | – | 21.7 ± 1
298.1 K, x2 = 0.5 | 0.461 ± 0.009 | –
298.1 K, x2 = 0.69 | 0.311 ± 0.006 | 55.1 ± 2.3
298.1 K, x2 = 0.858 | 0.172 ± 0.003 | 111.8 ± 5.9
303 K, x2 = 0.063 | 0.394 ± 0.008 | –
303 K, x2 = 0.099 | 0.576 ± 0.012 | –
303 K, x2 = 0.144 | 0.711 ± 0.014 | –
303 K, x2 = 0.2 | 0.82 ± 0.016 | –
303 K, x2 = 0.274 | 0.772 ± 0.015 | –
303 K, x2 = 0.366 | – | 8.56 ± 0.35
303 K, x2 = 0.374 | 0.681 ± 0.014 | –
303 K, x2 = 0.497 | 0.553 ± 0.011 | –
303 K, x2 = 0.498 | – | 17.83 ± 0.75
303 K, x2 = 0.694 | 0.369 ± 0.007 | –
303 K, x2 = 0.852 | – | 84.4 ± 3.7
303 K, x2 = 0.858 | 0.212 ± 0.004 | –
308.1 K, x2 = 0.063 | 0.415 ± 0.008 | –
308.1 K, x2 = 0.102 | 0.612 ± 0.012 | –
308.1 K, x2 = 0.141 | 0.766 ± 0.015 | –
308.1 K, x2 = 0.201 | – | 2.93 ± 0.12
308.1 K, x2 = 0.206 | 0.886 ± 0.018 | –
308.1 K, x2 = 0.281 | 0.842 ± 0.017 | –
308.1 K, x2 = 0.366 | – | 7.87 ± 0.33
308.1 K, x2 = 0.378 | 0.761 ± 0.015 | –
308.1 K, x2 = 0.5 | 0.611 ± 0.012 | –
308.1 K, x2 = 0.69 | – | 39.4 ± 1.6
308.1 K, x2 = 0.694 | 0.435 ± 0.009 | –
308.1 K, x2 = 0.858 | 0.259 ± 0.005 | –
313 K, x2 = 0.063 | 0.434 ± 0.009 | –
313 K, x2 = 0.099 | 0.645 ± 0.013 | –
313 K, x2 = 0.141 | – | 1.77 ± 0.08
313 K, x2 = 0.142 | 0.817 ± 0.016 | –
313 K, x2 = 0.203 | 0.951 ± 0.019 | –
313 K, x2 = 0.278 | 0.911 ± 0.018 | –
313 K, x2 = 0.371 | 0.834 ± 0.017 | –
313 K, x2 = 0.498 | – | 12.73 ± 0.53
313 K, x2 = 0.5 | 0.688 ± 0.014 | –
313 K, x2 = 0.687 | – | 32.3 ± 1.4
313 K, x2 = 0.697 | 0.504 ± 0.01 | –
313 K, x2 = 0.859 | 0.31 ± 0.006 | –
318.1 K, x2 = 0.063 | 0.456 ± 0.009 | –
318.1 K, x2 = 0.099 | 0.678 ± 0.014 | –
318.1 K, x2 = 0.142 | 0.86 ± 0.017 | –
318.1 K, x2 = 0.2 | 1.02 ± 0.02 | –
318.1 K, x2 = 0.275 | 0.988 ± 0.02 | –
318.1 K, x2 = 0.369 | – | 6.11 ± 0.25
318.1 K, x2 = 0.372 | 0.914 ± 0.018 | –
318.1 K, x2 = 0.504 | 0.757 ± 0.015 | –
318.1 K, x2 = 0.687 | – | 26.6 ± 1.2
318.1 K, x2 = 0.694 | 0.577 ± 0.012 | –
318.1 K, x2 = 0.855 | 0.361 ± 0.007 | –
323 K, x2 = 0 | – | 0.46 ± 0.02
323 K, x2 = 0.026 | 0.204 ± 0.004 | –
323 K, x2 = 0.095 | – | 1.09 ± 0.05
323 K, x2 = 0.099 | 0.715 ± 0.014 | –
323 K, x2 = 0.142 | 0.908 ± 0.018 | –
323 K, x2 = 0.201 | 1.08 ± 0.022 | –
323 K, x2 = 0.278 | 1.07 ± 0.022 | –
323 K, x2 = 0.372 | 0.991 ± 0.02 | –
323 K, x2 = 0.498 | – | 9.89 ± 0.41
323 K, x2 = 0.501 | 0.834 ± 0.017 | –
323 K, x2 = 0.694 | 0.658 ± 0.013 | –
323 K, x2 = 0.856 | – | 37.4 ± 1.9
323 K, x2 = 0.862 | 0.416 ± 0.008 | –

CCOC(=O)OCC + CCCC[N+]1(C)CCCC1.O=S(=O)([N-]S(=O)(=O)C(F)(F)F)C(F)(F)F
Details | viscosity [mPa·s]
323.15 K, 100 kPa, x2 = 0 | 0.54 ± 0.02

CC#N + CCCC[N+]1(C)CCCC1.O=S(=O)([O-])C(F)(F)F
101 kPa, x1 = 1
Details | viscosity [mPa·s]
288.15 K | 0.371 ± 0.008
293.15 K | 0.355 ± 0.008
298.15 K | 0.337 ± 0.007

CN(C)C=O + CCCC[P+](C)(CCCC)CCCC.COS(=O)(=O)[O-]
100 kPa, x2 = 0
Details | viscosity [mPa·s]
308.15 K | 0.717 ± 0.015
323.15 K | 0.63 ± 0.013

CC#N + CCCC[P+](CC)(CCCC)CCCC.F[B-](F)(F)F
100 kPa, x2 = 0
Details | viscosity [mPa·s]
293.15 K | 0.354 ± 0.021
298.15 K | 0.338 ± 0.02
303.15 K | 0.324 ± 0.02
308.15 K | 0.31 ± 0.019
313.15 K | 0.298 ± 0.018
318.15 K | 0.286 ± 0.017

CC#N + CCCC[P+](CCCC)(CCCC)CCCC.F[B-](F)(F)F
100 kPa, x2 = 0
Details | viscosity [mPa·s]
293.15 K | 0.354 ± 0.021
298.15 K | 0.338 ± 0.02
303.15 K | 0.324 ± 0.02
308.15 K | 0.31 ± 0.019
313.15 K | 0.298 ± 0.018
318.15 K | 0.286 ± 0.017

CCCCCC(=O)O + CCCC[P+](CCCC)(CCCC)CCCC.[Br-]
Details | viscosity [mPa·s]
298 K, 100 kPa, x2 = 0.5 | 290

CCCC[N+]1(C)CCCC1.F[P-](F)(F)(F)(F)F + CCCC[n+]1cccc(C)c1.F[P-](F)(F)(F)(F)F
101.3 kPa
Details | viscosity [mPa·s]
308.15 K, x2 = 0.4 | 535 ± 19
313.15 K, x2 = 0.4 | 390 ± 13
318.15 K, x2 = 0.4 | 290 ± 9
318.15 K, x2 = 0.5 | 262 ± 8
328.15 K, x2 = 0.4 | 170 ± 4
328.15 K, x2 = 0.7 | 123 ± 3
328.15 K, x2 = 0.9 | 102 ± 2
333.15 K, x2 = 0.6 | 108 ± 3
338.15 K, x2 = 0.5 | 96 ± 2
343.15 K, x2 = 0.2 | 110 ± 3
343.15 K, x2 = 0.4 | 86 ± 2
343.15 K, x2 = 0.6 | 70 ± 2
348.15 K, x2 = 0.6 | 57 ± 1
353.15 K, x2 = 0.4 | 58 ± 1
358.15 K, x2 = 0.2 | 61 ± 1
358.15 K, x2 = 0.4 | 48 ± 1
363.15 K, x2 = 0.5 | 37 ± 1
363.15 K, x2 = 0.6 | 34 ± 1

CCCC[n+]1ccccc1.O=S(=O)([N-]S(=O)(=O)C(F)(F)F)C(F)(F)F + CCCC[n+]1ccccc1.F[B-](F)(F)F
101 kPa
Details | viscosity [mPa·s]
303.15 K, x1 = 0.2162 | 91.2 ± 2.7
303.15 K, x1 = 0.7643 | 58.2 ± 1.3
313.15 K, x1 = 0.4327 | 48.4 ± 1.1
313.15 K, x1 = 0.5429 | 46.2 ± 1.1
313.15 K, x1 = 0.6523 | 42.5 ± 1
313.15 K, x1 = 0.8822 | 36.3 ± 0.9
323.15 K, x1 = 1 | 24.2 ± 0.6
333.15 K, x1 = 0.6523 | 21.8 ± 0.5
343.15 K, x1 = 0.1119 | 21.9 ± 0.5
343.15 K, x1 = 0.2162 | 19.9 ± 0.5
343.15 K, x1 = 0.8822 | 14.5 ± 0.3
353.15 K, x1 = 0.1119 | 16.5 ± 0.4
353.15 K, x1 = 0.4327 | 13.7 ± 0.3
353.15 K, x1 = 0.5429 | 13.2 ± 0.3
353.15 K, x1 = 1 | 10.9 ± 0.3
